Results taken from patent US9981983B2, “Thienopyranones as kinase inhibitors” (SignalRx Pharmaceuticals, Inc., priority 2008, dated 2018).

Legend:
[1] = tested on: PI-3 kinases; settings: Vlahos et al. J. Biol. Chem. 1994; cited from earlier work
[2] = tested on: PC3 cells; test: PC3 prostate cancer cell proliferation (WST); type: cell-based; settings: Homo sapiens, PC-3; PC3 cells; read-out: PC3 IC50 Proliferation
Protocol: PC3 cells were obtained from the American Type Culture Collection (ATCC, Manassas, Va., Cat.# CRL-1435) Two thousand cells from the prostate cancer line PC3 were placed in 50 μL of complete RPMI 1640 media (Invitrogen, Carlsbad, Calif., Cat.#22400-105) with 10% fetal bovine serum (Invitrogen, Carlsbad, Calif., Cat.#10438-026) into each well of 96 well cell culture plates in a hexaplicate sampling pattern. A 50 μL aliquot of test compound (prepared from stock test compounds in DMSO diluted into media) was added to the appropriate well such that the final concentrations of test compound were 200, 40, 8, 1.6, 0.32, 0.064, 0.0128, 0.00256, and 0 μM and the final DMSO concentration was less than or equal to 0.2%.
The plates were incubated for 72 hours 37° C. in an atmosphere of 5% CO2. At the end of this time a 10 μL aliquot of WST solution (Roche Applied Science, Mannheim, Germany) was added into each of the wells. Cells were exposed to the WST solution for 4 hours. A SpectraMax Plus spectrophotometric plate reader (Molecular Devices, Sunnydale, Calif.) was then used to measure the optical density at 450 nm (OD450 nm). Sigmoidal curves were drawn for the dose responses and IC50 values were calculated using the software package GraphPad Prism4 (GraphPad Software, Inc., San Diego, Calif.).

[3] = tested on: 786-0 renal cell carcinoma xenograft; test: 786-0 renal cell carcinoma xenograft mouse model; type: in vivo, nude mice; settings: 25 mg/kg, ip, 3×/wk for 4 weeks
Protocol: To determine if Cpd 9 has anti-tumor effects, an in vivo study was conducted in a 786-0 renal cell carcinoma xenograft model, 786-0 cells (2×10^6) were inoculated subcutaneously into nude mice in the flank area and tumor growth was monitored with calipers via external measurements. Tumor volume was calculated using the formula volume=(length×width^2)/2. When the average tumor volume reached 400 mm^3, mice were randomly divided into 2 groups and treated with either DMSO (control) or Cpd 9 (25 mg/kg, ip) three times weekly (M, W, F) for two weeks.
To determine if Cpd 28 has anti-tumor effects, an in vivo study was conducted in a 786-0 renal cell carcinoma xenograft model, 786-0 cells (2×10^6) were inoculated subcutaneously into nude mice in the flank area and tumor growth was monitored with calipers via external measurements. Tumor volume was calculated using the formula volume=(length×width^2)/2. Treatment was started when tumors reached an average volume of 300 mm^3. […] DMSO was used as control since this was the vehicle the compounds were dissolved in. Tumor size was monitored twice weekly and body weight was monitored once weekly. Means and standard deviations were calculated and the Student t test method was used for statistical comparisons.

[4] = target: mTOR (Homo sapiens, UniProt P42345); test: mTOR inhibition; type: biochemical
[5] = tested on: pAKT serine 473 level in PC3 cells; test: pAKT status in IGF-1 stimulated PC3 cells (Ser473 pAKT ELISA); type: cell-based; settings: Homo sapiens, PC-3; PC3 cells; read-out: IC50 pAKT (Pathway Inhibition)
Protocol: PC3 cells were obtained from the American Type Culture Collection (ATCC, Manassas, Va., Cat.# CRL-1435). Two million cells from the prostate cancer line PC3 were placed into 6 cm culture dishes and allowed to grow in complete RPMI 1640 media (Invitrogen, Carlsbad, Calif., Cat.#22400-105) with 10% fetal bovine serum (Invitrogen, Carlsbad, Calif., Cat.#10438-026). After this time period the cells were serum starved for 5 hours followed by application of the test compound. Test compound was added as a DMSO (dimethyl sulfoxide) solution such that the final DMSO concentration in the cell media was less than or equal to 0.2% by volume After 30 minutes of exposure the growth factor stimulant, human IGF-1 (PeproTech, Inc., Rocky Hill, N.J., Cat.#100-11), was added to a final concentration of 0.1 μg/ml in each well. After 30 minutes of IGF-1 exposure, cells were removed from the media and cell lysates were prepared using RIPA Lysis buffer (Upstate, Lake Placid, N.Y., Cat.#20-188), keeping on ice. The pAKT serine 473 level was measured in duplicate samples of the cell lysates using commercially available assays such as the Pathscan® Sandwich ELISA kit for Ser473 pAKT (Cell Signaling, Danvers, Mass., Cat.#7160). A SpectraMax Plus spectrophotometric plate reader (Molecular Devices, Sunnydale, Calif.) was used to measure the optical density signal for pAKT at 450 nm (OD450 nm). The pAKT OD450 nm readings were normalized by total protein amount in the cell lysates determined by standard methods.
Concentrations of test compounds required to inhibit IGF stimulated pAKT levels to 50% of maximum levels in PC3 cells (termed DM50 for decreased maximum 50%) were calculated by inputting the dose responses in the software package GraphPad Prism4 (GraphPad Software, Inc., San Diego, Calif.).
By these methods a number of compounds of the invention were evaluated and the concentration needed to reduce the detectable pAKT to 50% of the maximal uninhibited signal was calculated. These values (in μMolar units) are listed in Table 8 under the column heading PC3 pAKT IC50 (μMolar).

IC50 [2]: 7500 to 12100 nM | IC50 [4]: 1060 nM | IC50 [5]: 1300 nM
SMILES: O=c1cc(N2CCOCC2)oc2c(-c3ccccc3)cccc12 [LY294002, 2-morpholino-8-phenyl-4H-chromen-4-one, reference compound]
IC50 [1]: 1400 nM | tumor growth inhibition compared to control [3]: 54%
